# In patent publication US9750705B2, “Agents useful for treating obesity, diabetes and related disorders” (The Regents of the University of California, priority 2012, dated 2017):
# Where a name gives a salt, the structure may show the parent alone.
# Experiments:
# [1] = Insulin tolerance test (ITT) in mice; type: in vivo
# [2] = Basal blood glucose in mice after daily drug administration; type: in vivo; settings: 2.5 mg/kg I.P. for 4 days
# Experimental: Groups of age/sex matched mice of Control and ShcKO genotypes were food deprived for four hours and challenged with I.P. injection of insulin, and glucose concentration was determined in blood exactly at indicated time-points. Decrease and recovery of blood glucose was calculated as a % of basal level (the time-point before insulin injection). Basal levels of glucose were measured in triplicate for each mouse. For the GTT, the same groups of mice were fasted during fourteen hours and challenged with glucose injection I.P., analogously the blood glucose concentrations were measured.
# Groups of mice, ten for the experimental drug treatment and 14 for the placebo treatment were subject for I.P. administration of a drug or placebo solutions daily during four days. Acarbose, a known drug which decreases blood glucose concentration was used as a control. The insulin tolerance test, ITT was performed on the mice as described previously, in Example 2.
# [3] = system: phospho-Akt in FL83B cells; experiment: Western blot of insulin-dependent phospho-Akt; type: cell-based, mouse; settings: for insulin-dependent phospho-Akt (P-Akt) signaling/activation: drug 1 hour, insulin 10 minutes
# Experimental: As explained above and in Example 4, Western blots of phospho-Akt and phospho-Erk are a more accurate and precise and quantitative measure of Akt phosphorylation than ICWB measurements. Insulin-dependent phospho-Akt is a direct measurement of insulin sensitivity, and we expect that Shc inhibitors will stimulate phospho-Akt more than phospho-Erk. All of the drugs listed in FIG. 5A stimulated insulin-dependent phospho-Akt at some concentration. Method. Mouse liver cells FL83B were plated at density of 400.000 cells per well of 6 well plate and cultivated for 48 hours, media was changed to DMEM, 25 mM glucose serum free and 16 hours later the cells were treated with drug at the indicated concentration for one hour. Control wells were treated with the vehicle (DMSO), in certain control wells the metabolic (Akt) insulin signaling was blocked with wortmannin. The cells were induced with indicated concentration of insulin for 10 minutes, total protein was extracted and the Western Blots were performed with indicated antibody as described above. […]
# [4] = system: phospho-Erk in FL83B cells; experiment: Western blot of phospho-Erk; type: cell-based, mouse; settings: drug 1 hour, then insulin
# Experimental: As explained above and in Example 4, Western blots of phospho-Akt and phospho-Erk are a more accurate and precise and quantitative measure of Akt phosphorylation than ICWB measurements. Insulin-dependent phospho-Akt is a direct measurement of insulin sensitivity, and we expect that Shc inhibitors will stimulate phospho-Akt more than phospho-Erk. All of the drugs listed in FIG. 5A stimulated insulin-dependent phospho-Akt at some concentration. Method. Mouse liver cells FL83B were plated at density of 400.000 cells per well of 6 well plate and cultivated for 48 hours, media was changed to DMEM, 25 mM glucose serum free and 16 hours later the cells were treated with drug at the indicated concentration for one hour. Control wells were treated with the vehicle (DMSO), in certain control wells the metabolic (Akt) insulin signaling was blocked with wortmannin. The cells were induced with indicated concentration of insulin for 10 minutes, total protein was extracted and the Western Blots were performed with indicated antibody as described above. Mouse liver cells FL83B were plated at density of 400.000 cells per well of 6 well plate and cultivated for 48 hours, media was changed to DMEM, 25 mM glucose serum free and 16 hours later the cells were treated with drug at the indicated concentration for one hour. […]
# phospho-Shc = experiment: Western blot of phospho-Shc (Shc activation); type: cell-based; settings: dose response
# Experimental: Assays to identify compounds useful for preventing, reducing, delaying or inhibiting symptoms of impaired insulin sensitivity, glucose intolerance or obesity can be performed in vitro. Candidate agents can be contacted with a population of test cells in the presence of insulin (e.g., 1 nM, 5 nM, 10 nM, 100 nM or more). An agent that prevents, reduces, delays or inhibits one or more symptoms of impaired insulin sensitivity, glucose intolerance or obesity increases the ratio of levels of phospho-Akt-1 over phospho-Erk relative to a control ratio. The increase in ratio of levels of phospho-Akt-1 over phospho-Erk can be determined in comparison to a control population of cells that have not been contacted with insulin or have been contacted with a low concentration of insulin (e.g., less than 0.1 nM) or a population of cells contacted with insulin but not with the compound under test. Ratio of levels of phospho-Akt-1 over phospho-Erk can be determined using a Western blot among other methods. Inhibition of Shc activity can be quantitatively measured by assaying the reduction of stimulatory Shc phosphorylation, using a phospho-Shc specific antibody. Inhibition of Shc expression can be measured using a Western blot. […]
# [5] = system: insulin-dependent activation of Akt and ERK in FL83B cells; experiment: High-throughput in-cell western blot (ICWB) screen for insulin sensitizers: insulin-dependent phospho-Akt versus phospho-Erk; type: cell-based, mouse; settings: for rank in the insulin-sensitizer screen: screen of 1689 molecules
# Experimental: Drugs were screened by in-cell western blot (ICWB) for their ability to stimulate phospho-Akt activation in the presence of trace or 10 nM insulin (FIG. 4A). Cells in wells were treated with drugs, and the activity (phosphorylation) of Akt was determined by a phospho-Akt specific antibody. In FIG. 4A, low insulin was given and drugs a, b, c, stimulated Akt activation. In FIG. 4B, 10 nM insulin was given and a, b, and c stimulated signaling over background, and d and e inhibited. […] Drugs were primarily screened for their ability to promote insulin-dependent stimulation of (phospho) Akt, then secondarily screened for lack of activity to stimulate (phospho) Erk, or a high Akt/Erk ratio. Such drugs are expected to cause insulin sensitivity, resistance to obesity, and longevity. Some drugs having these desired characteristics are Shc inhibitors.
# FL83B cells were seeded on 384 well plates, 10,000 cells per well in F-12 media supplemented with 10% FBS and 25 mM glucose; 48 hours later the media was replaced with F-12, 25 mM glucose without FBS for sixteen hours; cells were supplemented with assigned drug at desired concentration for 1 hour in duplicate and then, the cells were stimulated with desired concentration of insulin for ten minutes for Akt activation and fifteen minutes for ERK activation measurements. After that time the media was removed and replaced with fixing solution of 5% Formaldehyde in PBS, pH=7.4, 30 minutes later, the fixing solution was replaced with the permeabilization buffer, 0.1% triton X100 in PBS for 40 minutes. […] After the incubation with the secondary antibodies for one hour at room temperature, the wells were washed again two times with the 0.1% tween-20 in PBS and scanned on the Li-Cor Odyssey infrared scanner; images were analyzed with the Li-Cor Odyssey software. […] Phospho-Akt, Phospho-ERK signals than were normalized by tubulin signals in each well and the densitometric results were analyzed to identify drugs which improved metabolic insulin sensitivity without inducing the mitogenic ERK activation. […]
SMILES,insulin sensitivity in-vivo (ITT) ([1]; 2.5 mg/kg I.P. for 4 days),basal blood glucose [2],P-Akt/P-Erk ratio ([3]; Western blot),insulin-dependent phospho-Akt (P-Akt) signaling/activation [3],Erk activation [4],phospho-Shc (Shc activation) (phospho-Shc),rank in the insulin-sensitizer screen [5],"insulin sensitivity in vivo (ITT) ([1]; PO, 20 and 50 mg/kg)","P-Akt/P-Erk ratio in the primary screen ([5]; ICWB, FL83B cells)"
COc1cc2ncnc(Nc3ccc(Oc4ccccc4)cc3)c2cc1OC [Src I-1],increased insulin sensitivity in-vivo,significantly decreased basal blood glucose,increasing the P-Akt/P-Erk ratio,stimulates insulin-dependent P-Akt signaling,decreased Erk activation,inhibited phospho-Shc activation in dose-dependent manner,top 35 out of 1689,,
COC1=C(OC)C(=O)C(CCCCCCCCCCO)=C(C)C1=O [idebenone],,,,increased insulin-dependent phospho-Akt activation in a dose-dependent manner,,decreased phospho-Shc in a dose-dependent manner,,increased insulin sensitivity in vivo,increased P-Akt/P-Erk ratio
"CN(C)C(=N)N=C(N)N [metformin, metformin hydrochloride]",,,,,,,top 35 out of 1689,,
